Source: patent US10405547B2, “Substituted cyclic amides as herbicides” (FMC Corporation, priority 2015, dated 2019)

What was measured:
Assay type in all cases: in vivo
[1] = tested on: ryegrass, Italian (Lolium multiflorum); test: Test A preemergence, Italian ryegrass; conditions: 0 to 100 scale (0 no effect, 100 complete control)
In short: (§1)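 Visual injury scores (0 no effect to 100 complete control) taken about 10 days after treatment, relative to untreated plants. Treatments were directed soil spray at planting for preemergence, or foliar application to one- to two-leaf plants (2-10 cm) for postemergence, with surfactant-containing formulations in loam–sand pots.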

[2] = tested on: galium (catchweed bedstraw, Galium aparine); test: Test A postemergence, galium; conditions: visual injury, 0 to 100 scale (0 no effect, 100 complete control), approximately 10 days
In short: as §1

kochia (Kochia scoparia) [3] = test: Test A preemergence, kochia; conditions: 0 to 100 scale (0 no effect, 100 complete control)
In short: as §1

[4] = tested on: barnyardgrass (Echinochloa crus-galli); test: Test A postemergence, barnyardgrass; conditions: visual injury, 0 to 100 scale (0 no effect, 100 complete control), approximately 10 days
In short: as §1

[5] = tested on: barnyardgrass (Echinochloa crus-galli); test: Test A preemergence, barnyardgrass; conditions: 0 to 100 scale (0 no effect, 100 complete control)
In short: as §1

[6] = tested on: barnyardgrass (Echinochloa crus-galli); test: Test B flooded paddy test, barnyardgrass; conditions: 250 g ai/ha, applied to paddy water, visual rating after 13 to 15 days, scale 0 (no effect) to 100 (complete control)
In short: (§2)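 Ratings were visual and made relative to untreated controls after 13 to 15 greenhouse days.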

[7] = tested on: foxtail, giant (Setaria faberii); test: Test A preemergence, giant foxtail; conditions: 0 to 100 scale (0 no effect, 100 complete control)
In short: as §1

rice (Oryza sativa) = test: Test B flooded paddy test, rice; conditions: 250 g ai/ha, applied to paddy water, visual rating after 13 to 15 days, scale 0 (no effect) to 100 (complete control)
In short: as §2

corn (Zea mays) = test: Test A postemergence, corn; conditions: visual injury, 0 to 100 scale (0 no effect, 100 complete control), approximately 10 days
In short: as §1

[8] = tested on: foxtail, giant (Setaria faberii); test: Test A postemergence, giant foxtail; conditions: visual injury, 0 to 100 scale (0 no effect, 100 complete control), approximately 10 days
In short: as §1

[9] = tested on: pigweed (Amaranthus retroflexus); test: Test A postemergence, pigweed; conditions: visual injury, 0 to 100 scale (0 no effect, 100 complete control), approximately 10 days
In short: as §1

[10] = tested on: ducksalad (Heteranthera limosa); test: Test B flooded paddy test, ducksalad; conditions: 250 g ai/ha, applied to paddy water, visual rating after 13 to 15 days, scale 0 (no effect) to 100 (complete control)
In short: as §2

[11] = tested on: wheat (Triticum aestivum); test: Test A postemergence, wheat; conditions: visual injury, 0 to 100 scale (0 no effect, 100 complete control), approximately 10 days
In short: as §1

[12] = tested on: ragweed (common ragweed, Ambrosia elatior); test: Test A preemergence, ragweed; conditions: 0 to 100 scale (0 no effect, 100 complete control)
In short: as §1

kochia (Kochia scoparia) [13] = test: Test A postemergence, kochia; conditions: visual injury, 0 to 100 scale (0 no effect, 100 complete control), approximately 10 days
In short: as §1

[14] = tested on: sedge, umbrella (small-flower umbrella sedge, Cyperus difformis); test: Test B flooded paddy test, umbrella sedge; conditions: 250 g ai/ha, applied to paddy water, visual rating after 13 to 15 days, scale 0 (no effect) to 100 (complete control)
In short: as §2

[15] = tested on: ragweed (common ragweed, Ambrosia elatior); test: Test A postemergence, ragweed; conditions: visual injury, 0 to 100 scale (0 no effect, 100 complete control), approximately 10 days
In short: as §1

[16] = tested on: blackgrass (Alopecurus myosuroides); test: Test A postemergence, blackgrass; conditions: visual injury, 0 to 100 scale (0 no effect, 100 complete control), approximately 10 days
In short: as §1

[17] = tested on: pigweed (Amaranthus retroflexus); test: Test A preemergence, pigweed; conditions: 0 to 100 scale (0 no effect, 100 complete control)
In short: as §1

[18] = tested on: ryegrass, Italian (Lolium multiflorum); test: Test A postemergence, Italian ryegrass; conditions: visual injury, 0 to 100 scale (0 no effect, 100 complete control), approximately 10 days
In short: as §1

Row | Structure (SMILES) | Plant response rating, Ryegrass, Italian ([1]; 125 g ai/ha) | Plant response rating, Ryegrass, Italian ([1]; 500 g ai/ha) | Plant response rating, Galium ([2]; 125 g ai/ha) | Plant response rating, Galium ([2]; 500 g ai/ha) | Plant response rating, Kochia (kochia (Kochia scoparia) [3]; 125 g ai/ha) | Plant response rating, Barnyardgrass ([4]; 125 g ai/ha) | Plant response rating, Barnyardgrass ([4]; 500 g ai/ha) | Plant response rating, Barnyardgrass ([5]; 125 g ai/ha) | Plant response rating, Barnyardgrass ([5]; 500 g ai/ha) | Plant response rating, Barnyardgrass (Flood) [6] | Plant response rating, Foxtail, Giant ([7]; 125 g ai/ha) | Plant response rating, Foxtail, Giant ([7]; 500 g ai/ha) | Plant response rating, Rice (Flood) (rice (Oryza sativa)) | Plant response rating, Corn (corn (Zea mays); 125 g ai/ha) | Plant response rating, Corn (corn (Zea mays); 500 g ai/ha) | Plant response rating, Foxtail, Giant ([8]; 125 g ai/ha) | Plant response rating, Foxtail, Giant ([8]; 500 g ai/ha) | Plant response rating, Pigweed ([9]; 125 g ai/ha) | Plant response rating, Pigweed ([9]; 500 g ai/ha) | Plant response rating, Ducksalad (Flood) [10] | other results
1 | O=C1NCC(c2ccccc2Cn2ccc(C(F)(F)F)n2)C1C(=O)Nc1ccc(F)c(F)c1F (centres unmarked) [Compound 58] | 0 | 20 | 0 | 20 | 0 | 0 | 60 | 30 | 90 | 0 | 60 | 90 | 0 | 0 | 0 | 30 | 60 | 0 | 0 | 0 | Plant response rating, Wheat ([11]; 125 g ai/ha): 0; Plant response rating, Wheat ([11]; 500 g ai/ha): 0; Plant response rating, Ragweed ([12]; 125 g ai/ha): 0; Plant response rating, Ragweed ([12]; 500 g ai/ha): 0; Plant response rating, Kochia (kochia (Kochia scoparia) [13]; 125 g ai/ha): 0; Plant response rating, Kochia (kochia (Kochia scoparia) [13]; 500 g ai/ha): 20; Plant response rating, Sedge, Umbrella (Flood) [14]: 0; Plant response rating, Ragweed ([15]; 125 g ai/ha): 0; Plant response rating, Ragweed ([15]; 500 g ai/ha): 0; Plant response rating, Blackgrass ([16]; 125 g ai/ha): 0; Plant response rating, Blackgrass ([16]; 500 g ai/ha): 0; Plant response rating, Pigweed ([17]; 125 g ai/ha): 0; Plant response rating, Pigweed ([17]; 500 g ai/ha): 0; Plant response rating, Ryegrass, Italian ([18]; 125 g ai/ha): 0; Plant response rating, Ryegrass, Italian ([18]; 500 g ai/ha): 0
2 | O=C1NCC(c2ccccc2Cn2ccc(C(F)(F)F)n2)C1C(=O)Nc1ccccc1F (centres unmarked) [Compound 59] | 0 | 0 | 0 | 0 | 0 | 0 | 30 | 0 | 40 | 0 | 0 | 50 | 0 | 0 | 0 | 0 | 20 | 0 | 0 | 0 | Plant response rating, Kochia (kochia (Kochia scoparia) [3]; 500 g ai/ha): 0; Plant response rating, Wheat ([11]; 125 g ai/ha): 0; Plant response rating, Wheat ([11]; 500 g ai/ha): 0; Plant response rating, Ragweed ([12]; 125 g ai/ha): 0; Plant response rating, Ragweed ([12]; 500 g ai/ha): 0; Plant response rating, Kochia (kochia (Kochia scoparia) [13]; 125 g ai/ha): 0; Plant response rating, Kochia (kochia (Kochia scoparia) [13]; 500 g ai/ha): 0; Plant response rating, Sedge, Umbrella (Flood) [14]: 0; Plant response rating, Ragweed ([15]; 125 g ai/ha): 0; Plant response rating, Ragweed ([15]; 500 g ai/ha): 0; Plant response rating, Blackgrass ([16]; 125 g ai/ha): 0; Plant response rating, Blackgrass ([16]; 500 g ai/ha): 0; Plant response rating, Pigweed ([17]; 125 g ai/ha): 0; Plant response rating, Pigweed ([17]; 500 g ai/ha): 0; Plant response rating, Ryegrass, Italian ([18]; 125 g ai/ha): 0; Plant response rating, Ryegrass, Italian ([18]; 500 g ai/ha): 0
